Data: US12410161B2, “Tetrahydrobenzo-quinoline sulfonamides derivative compounds” (UCB Biopharma SRL, priority 2019, dated 2025)

Experiment: Thermal stability note in synthesis of Example 2
Assay type: physicochemical
Settings: observation on isolated title compound
Description: To a solution of Intermediate 27 (42 mg, 0.068 mmol) in N,N-dimethylformamide (1.5 mL) a solution of formic hydrazide (14 mg, 0.229 mmol) in N,N-dimethylformamide (0.3 mL) followed by mercury(II) chloride (62 mg, 0.229 mmol) were introduced. After 5 minutes stirring at room temperature under an atmosphere of nitrogen, a solution of triethylamine (23 mg, 0.229 mmol) in N,N-dimethylformamide (0.2 mL) was introduced and the reaction warmed to 80° C. for 1.7 hours. After cooling to room temperature, the reaction mixture was diluted with dichloromethane (10 mL), kieselguhr (1.0 g) was introduced, and the suspension stirred for 10 minutes. The suspension was then filtered and the filter-cake washed with dichloromethane (10 mL). Evaporation of the combined filtrates in-vacuo furnished a residue which was purified by low pH preparative liquid chromatography to furnish the title compound (2.3 mg at 88% purity LCMS-UV215, 5% yield) as a colourless solid. LCMS [m+H]^+ 553, RT 2.07 min (Method 3).

Cc1cc(Nc2nncn2C2CCc3cc4cnc(C5CC5)cc4c(S(=O)(=O)NCC(C)(C)F)c3C2)n(C)n1 (stereo not shown) [Example 2, 3-cyclopropyl-7-[3-[(2,5-dimethylpyrazol-3-yl)amino]-1,2,4-triazol-4-yl]-N-(2-fluoro-2-methylpropyl)-6,7,8,9-tetrahydrobenzo[g]isoquinoline-5-sulfonamide]
thermal stability: thermally unstable
